# Test results taken from publication PMC2790607, “Finding of the Low Molecular Weight Inhibitors of Resuscitation Promoting Factor Enzymatic and Resuscitation Activity” (PLoS ONE, 2009).
# pIC50: −log10 of the molar value. Like-named read-outs stand apart in the source and are kept apart here.
# Columns and labels:
# [1] = tested on: Micrococcus luteus; assay: microbe, parasite or virus in culture; type: cell-based; settings: Micrococcus luteus; lowest concentration which suppresses growth; determined during 24 hours; NI = no inhibition was observed
# [2] = molecular target: T1, ΔDUFRpf B (Mycobacterium tuberculosis, UniProt P9WG29); parameters: species or system M. tuberculosis; settings: inhibitor 2 and 4 µg/ml, ΔDUFRpf B 60 µg/ml
# [3] = tested on: M. smegmatis "non-culturable" cells; type: cell-based, Mycobacterium smegmatis; settings: MPN assay
# [4] = molecular target: T2, Rpf Sm (Micrococcus luteus, UniProt O86308); settings: inhibitor 2 and 4 µg/ml, Rpf Sm 40 µg/ml
# T2 construct: His-tag (inferred from the pET19b vector and the Ni2+-chelation purification); made in house; host or cells: E. coli HSM174 (DE3)
# [5] = tested on: M. tuberculosis "non-culturable" cells; type: cell-based, Mycobacterium tuberculosis; settings: inhibitor 10 µg/ml
# [6] = tested on: Laccase(1.10.3.2); assay: Laccase activity (pyrocatechin, OD410); type: biochemical; settings: control 3.6
# Procedure: (§1) Alcoholdehydrohenase(1.1.1.1) activity: ADH was dissolved in 50 mM phospahe buffer pH 7 at the concentration 10 µg/ml. The rate of the reaction was judged by transformation of NAD^+ (1 mM) into NADH+H^+. As the substrate ethanol was used. Activity was measured by OD340. Laccase(1.10.3.2) activity: Laccase was dissolved in the 50 mM citrate-phosphate buffer, pH4.5 at concentration 9 µg/ml. Pyrocatechin was used at concentration 11 µg/ml. Activity was measured by OD410. Trypsin(3.4.21.4) activity: The enzyme at concentration 8.0 µg/ml was dissolved in 50 mM Tris-HCl buffer pH 8.0. Concentration of the substrate (N-CBz-Gly-Gly-Arg-β-naphthylamide - Sigma-Aldrich)- 11 µg/ml. Registration of the kinetic curves was made fluorimetrically - excitation wavelength - 330 nm; emission - 420 nm. (0.02 MB DOC) Click here for additional data file.
# [7] = tested on: M. smegmatis; type: cell-based, Mycobacterium smegmatis; settings: at 0.1–1 µg/ml (not shown)
# [8] = tested on: Trypsin(3.4.21.4); assay: Trypsin activity (fluorimetric); type: biochemical; settings: control 10
# Procedure: as §1
# [9] = molecular target: T2, Rpf Sm; assay: Muralytic activity of Rpf, 4-MUF-3-NAG hydrolysis; type: biochemical, M. luteus
# Procedure: The truncated form of M.luteus Rpf (RpfSm) was used for the analysis. The truncated protein contained conserved Rpf domain and additional 20 amino acids of the gene product, corresponding to the following amino acid sequence:
# To determine a muralytic activity of the recombinant Rpfs', 4-methylumbelliferyl-β-D-N, N′, N″-triacetylchitotrioside (4-MUF-3-NAG) (“Sigma”, Germany) was applied. […] A number of experiments were performed in the presence of NPT compounds, in concentration range of 0.5–10 µg/ml. After 3 hours of incubation at 37°C, 2 µl of 10 M NaOH was added and the samples were frozen and kept at −20°C. […] The intensity of fluorescence was detected by the RF-5301PC fluorimeter (“SHIMADZU”, Japan) using excitation wavelength of 364 nm and a read-out of 448 nm.
# [10] = tested on: Alcoholdehydrohenase(1.1.1.1); assay: Alcoholdehydrogenase activity (NAD+ to NADH, OD340); type: biochemical; settings: control 1.7
# Procedure: as §1
# [11] = molecular target: T1, ΔDUFRpf B; type: binding, M. tuberculosis
# T2 sequence (O86308 42-134): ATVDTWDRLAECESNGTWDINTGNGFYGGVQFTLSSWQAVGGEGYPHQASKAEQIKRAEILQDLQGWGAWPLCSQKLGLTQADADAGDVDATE
# T1 sequence (P9WG29 whole entry, looked up, stated change not applied): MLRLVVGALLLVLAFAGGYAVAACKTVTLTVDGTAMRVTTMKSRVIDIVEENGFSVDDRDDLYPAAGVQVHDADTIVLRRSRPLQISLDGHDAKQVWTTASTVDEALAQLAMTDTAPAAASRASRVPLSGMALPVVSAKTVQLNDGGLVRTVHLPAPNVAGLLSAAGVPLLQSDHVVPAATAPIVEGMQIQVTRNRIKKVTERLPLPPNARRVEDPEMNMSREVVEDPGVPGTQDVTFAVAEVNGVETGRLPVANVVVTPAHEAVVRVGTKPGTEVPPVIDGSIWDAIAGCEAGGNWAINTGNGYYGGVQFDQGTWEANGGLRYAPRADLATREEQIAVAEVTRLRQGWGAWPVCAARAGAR
compound,measurement,setting,value
"N#CSc1ccc(C(=O)c2ccccc2)cc1[N+](=O)[O-] [VII, 4-Benzoyl-2-nitrophenyl thiocyanate]",MIC,[1],1 to 5 µg/mL
same,changes in the CD spectra of ΔDUFRpf B,[2],did not produce significant changes
same,concentrations active in suppressing resuscitation of M. smegmatis,[3],0.1 to 1 µg/mL
same,changes in the CD spectra of Rpf Sm,[4],did not produce significant changes
same,"MPN, logarithmic transformation of cell concentration (cells/ml)",[5]; time 0 days,3.48
same,"MPN, logarithmic transformation of cell concentration (cells/ml)",[5]; time 14 days,3.48
same,"MPN, logarithmic transformation of cell concentration (cells/ml)",[5]; time 19 days,3.48
same,"MPN, logarithmic transformation of cell concentration (cells/ml)",[5]; time 21 days,3.86
same,"MPN, logarithmic transformation of cell concentration (cells/ml)",[5]; time 23 days,5.38
same,"MPN, logarithmic transformation of cell concentration (cells/ml)",[5]; time 27 days,6.18
same,"MPN, logarithmic transformation of cell concentration (cells/ml)",[5]; time 30 days,6.18
same,"MPN, logarithmic transformation of cell concentration (cells/ml)",[5]; time 33 days,6.18
same,"MPN, logarithmic transformation of cell concentration (cells/ml)",[5]; time 36 days,6.18
same,"MPN, logarithmic transformation of cell concentration (cells/ml)",[5]; time 40 days,6.18
same,"τ1/2, time needed to achieve a 50% level of substrate conversion, Laccase",[6]; compound 4 µg/ml,3.6 s
same,"τ1/2, time needed to achieve a 50% level of substrate conversion, Laccase",[6]; compound 10 µg/ml,3.5 s
same,growth of active cells of M. smegmatis,[7],did not inhibit growth
same,"τ1/2, time needed to achieve a 50% level of substrate conversion, Trypsin",[8]; compound 4 µg/ml,10 s
same,"τ1/2, time needed to achieve a 50% level of substrate conversion, Trypsin",[8]; compound 10 µg/ml,10 s
same,pIC50,[9],5.18
same,type of inhibition of Rpf-Sm muralytic activity (Lineweaver-Burk plot),"[9]; substrate 3 to 24 µM, inhibitor 0.5 to 10 µg/ml",non-competitive inhibition
same,melting point,,104 to 106 °C
same,"τ1/2, time needed to achieve a 50% level of substrate conversion, Alchoholdehydrohenase",[10]; compound 4 µg/ml,1.75 s
same,"τ1/2, time needed to achieve a 50% level of substrate conversion, Alchoholdehydrohenase",[10]; compound 10 µg/ml,1.7 s
same,interaction with the buried tryptophanes of ΔDUFRpfB,[11]; fluorescence studies,interacted with at least two exposed and one buried tryptophan
same,accessible fraction of ΔDUFRpfB tryptophanes (fa),"[11]; modified Stern-Volmer equation, excitation 280 nm, emission 340 nm",~65%
